# Measurements taken from US8153385B2, “Target protein and target gene in drug designing and screening method” (Reverse Proteomics Research Institute Co., Ltd., priority 2004, dated 2012).
# Counter-ions that a name gives are not always drawn.
# Target: T1, FLJ13397 clone-derived protein (CARP) (Homo sapiens, UniProt Q9H8M7)
# T1 construct: A human full-length cDNA clone was expressed as a protein with an N-terminal His tag; His tag (pDEST17 Gateway vector) (N); made in house; host or cells: Escherichia coli BL21star(DE3)pLysS
# T1 sequence (Q9H8M7 1-445): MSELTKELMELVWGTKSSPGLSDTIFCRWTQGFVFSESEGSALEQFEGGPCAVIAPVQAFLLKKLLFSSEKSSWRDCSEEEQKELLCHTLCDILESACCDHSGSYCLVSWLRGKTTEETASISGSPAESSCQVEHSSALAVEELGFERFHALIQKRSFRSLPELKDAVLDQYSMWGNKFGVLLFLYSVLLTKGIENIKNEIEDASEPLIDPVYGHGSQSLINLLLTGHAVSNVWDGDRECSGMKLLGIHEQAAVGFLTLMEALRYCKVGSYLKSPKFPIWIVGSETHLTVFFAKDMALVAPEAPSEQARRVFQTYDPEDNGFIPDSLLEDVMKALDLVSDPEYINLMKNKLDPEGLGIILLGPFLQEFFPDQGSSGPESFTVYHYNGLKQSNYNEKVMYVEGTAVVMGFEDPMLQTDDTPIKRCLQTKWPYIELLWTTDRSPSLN
# Assay: SEC/MS (size exclusion chromatography / mass analysis) interaction analysis between FLJ13397 clone-derived protein and compounds
# Format: binding
# Method: BP-reaction was performed on human full-length cDNA clone and the cloning vector Gateway pDONR201 by the PCR cloning method using the Invitrogen Gateway system to yield an entry clone. LR-reaction was performed on this entry clone with the destination vector pDEST17 (Gateway System) and LR Clonase at 25° C. for 60 minutes to yield an expression plasmid. Escherichia coli competent cell BL21star(DE3)pLysS were transformed with this expression plasmid, a clone incorporating the expression vector was selected, and a frozen stock was prepared. The transformant was inoculated into LB medium and precultured, after which it was transferred into SB medium and cultured to induce the expression by IPTG, and the cells were stored frozen.
# A human full-length cDNA clone was expressed as a protein with an N-terminal His tag. This clone was purified using BioRobot 8000 (Qiagen) or ACTA Crystal (Amersham). […] In the purification with ACTA Crystal, affinity purification using a HisTrap HP column was followed by gel filtration purification using the Gel Filtration Column HiLoad 16/60 or a 10/30 Superdex 75 prep grade column. The purified fraction was used for interaction analysis after being subjected to SDS-PAGE to verify the estimated molecular weight and purity.
# To analyze the interactions between commonly used drugs and proteins expressed from human full-length cDNA clones while keeping both the proteins and the compounds in non-modified, non-immobilized state, size exclusion chromatography (SEC) and mass analysis were used in combination (FIGS. 1 and 2). The specific procedures are shown below.
# The compound-protein mixture prepared in step 1 was subjected to chromatography using an SEC column, the compound and the protein were separated by SEC, and the bound compound or compound that interacted with the protein in the protein fraction was analyzed using a mass analyzer.
# Protein concentrations were measured using BCA Protein Assay (PIERCE), in consideration of the purity calculated by SDS-PAGE.
# Mass analysis was performed using LCQ DECA XP (Thermoelectron) or Q-TOFmicro (Micromass), equipped with an ESI probe. The LC pump used was Agilent 1100 (Yokogawa Analytical Systems), and the autosampler used was HTC-PAL (CTC Analytics) equipped with a cooling stacker.
# In the SEC method using a 384-well spin column, Unifilter 100 (Whatman), packed with 10 μL (dry volume) of Bio-Gel P6 (BIO-RAD) and swollen with milliQ water, was used as the SEC column. […] The SEC spin column was mounted on an acetonitrile-aliquoted 384-well U-bottom plate and centrifuged; the SEC spin column filtrate, which is a protein fraction, was retrieved in 50% acetonitrile. The protein precipitate produced by the acetonitrile was removed via centrifugation and filtration for protein removal; the resulting filtrate was concentrated by centrifugation and re-dissolved in 10 μL of 50% methanol to obtain a mass analysis sample. The mobile phase supplied to the mass analyzer was 0.1% formic acid/50% methanol solution in the positive ion mode, and 0.1% ammonia/50% methanol solution in the negative ion mode; these mobile phases were used at a flow rate of 40 μL/min. 2-μL of mass analysis samples were injected using an autosampler at 2-Minute intervals; the mass spectral intensity of the compound was measured to obtain the spectral intensity of the pharmaceutical compound contained in the SEC spin column filtrate (protein fraction eluted from SEC).
# [1] = compound 1 μM, protein 0 μM (protein-free reference)
# [2] = compound 1 μM, protein 23.75 μM
# [3] = compound 10 μM, protein 0 μM (protein-free reference)
# [4] = compound 10 μM, protein 23.75 μM
# [5] = compound 10 μM, protein 47.5 μM
# [6] = compound 100 μM, protein 0 μM (protein-free reference)
# [7] = compound 100 μM, protein 23.75 μM
# [8] = compound 100 μM, protein 47.5 μM
# [9] = compound 250 μM, protein 0 μM (protein-free reference)
# [10] = compound 250 μM, protein 23.75 μM
# [11] = compound 250 μM, protein 47.5 μM
Compound,spectrum intensity of the extracted mass range (compound in SEC spin column filtrate) [1],spectrum intensity of the extracted mass range (compound in SEC spin column filtrate) [2],"spectrum intensity of the extracted mass range (compound in SEC spin column filtrate) (compound 1 μM, protein 47.5 μM)",spectrum intensity of the extracted mass range (compound in SEC spin column filtrate) [3],spectrum intensity of the extracted mass range (compound in SEC spin column filtrate) [4],spectrum intensity of the extracted mass range (compound in SEC spin column filtrate) [5],spectrum intensity of the extracted mass range (compound in SEC spin column filtrate) [6],spectrum intensity of the extracted mass range (compound in SEC spin column filtrate) [7],spectrum intensity of the extracted mass range (compound in SEC spin column filtrate) [8],spectrum intensity of the extracted mass range (compound in SEC spin column filtrate) [9],spectrum intensity of the extracted mass range (compound in SEC spin column filtrate) [10],spectrum intensity of the extracted mass range (compound in SEC spin column filtrate) [11]
COC(=O)Nc1nc2ccccc2[nH]1 [Carbendazim],20852664,16443963,24660680,22203544,21673683,32996198,20562919,35342827,65044479,34177767,129995989,148437211
Oc1ccc(CCN2CCC(Nc3nc4ccccc4n3Cc3ccc(F)cc3)CC2)cc1 [Desmethyl-astemizole],12076364,10091649,10876345,6489161,12628724,26276867,85510154,141884756,225675004,135192715,339921213,728918987
COC(=O)Nc1nc2ccc(S(=O)(=O)c3ccccc3)cc2[nH]1 [Fenbendazole Sulfone],4524987,2681468,2967134,9471873,13569838,12568548,4055561,63176239,88590858,5180253,165761033,286102392
OCCOCCN1CCN(C(c2ccccc2)c2ccc(Cl)cc2)CC1 (stereo not drawn) [Hydroxyzine],112855827,126033923,89527484,134387910,108540593,115214088,300477422,567712336,554713461,922692583,919366054,1073610880
CC[C@@H](C(=O)[C@@H](C)[C@@H](O)[C@H](C)CCc1ccc(C)c(O)c1C(=O)O)[C@H]1O[C@](CC)([C@H]2CC[C@](O)(CC)[C@H](C)O2)C[C@@H]1C [Lasalocid sodium salt],9674294,11601595,10467838,13154726,20062681,46504126,945932706,2538387120,3226817361,2174989976,9287976762,9802098210
COC(=O)Nc1nc2ccc(C(=O)c3ccccc3)cc2[nH]1 [Mebendazole],495347,480780,495499,525296,777305,725295,482901,15054045,9517765,444136,32097734,43484997
COC(=O)Nc1nc2ccc(C(=O)c3cccs3)cc2[nH]1 [Nocodazole],8235638,5202611,3977550,4879694,6159010,9316181,6162151,33749400,37180973,9512433,131043824,227971112
COC(=O)Nc1nc2ccc([S+]([O-])c3ccccc3)cc2[nH]1 (stereo not drawn) [Oxfendazole],23723676,29471243,35025210,28662280,41004899,42911925,106348780,160312456,180803127,128622627,264420112,506800735
